# Entries after “also recorded” stand apart in the source; their conditions may differ.
# How the values were obtained:
# β2 [1] = settings: ref [34]; cited from earlier work
# Description: (§1) Thus, we can discern two agonist-mediated directed events which relate to the activation of JNK. This type of m ...
# β2 [2] = settings: ref [34]; cited from earlier work; remark: listed apart in the source
# human PAR2 [3] = target: T1, human PAR2 (Homo sapiens, UniProt P55085); assay: TNFα-stimulated JNK activity (in vitro c-Jun phosphorylation), PAR2 agonist pre-incubation, PAR2 NCTC2544 cells (clone G); type: cell-based; settings: pre-incubation 30 min, TNFα 10 ng/ml 30 min
# T1 construct: expressed in transfected cells
# T1 sequence (P55085 26-397): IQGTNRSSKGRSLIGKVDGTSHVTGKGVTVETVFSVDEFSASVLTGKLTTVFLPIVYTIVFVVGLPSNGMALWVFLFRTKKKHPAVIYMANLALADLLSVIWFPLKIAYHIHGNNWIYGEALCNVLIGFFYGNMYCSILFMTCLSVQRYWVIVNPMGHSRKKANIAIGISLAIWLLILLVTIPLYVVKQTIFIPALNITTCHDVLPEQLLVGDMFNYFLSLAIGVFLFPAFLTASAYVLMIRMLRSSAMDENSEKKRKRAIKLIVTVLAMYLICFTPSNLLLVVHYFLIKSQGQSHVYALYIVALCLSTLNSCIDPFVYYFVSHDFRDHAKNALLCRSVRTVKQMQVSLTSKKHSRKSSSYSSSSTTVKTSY
# Method: (§2) Human skin epithelial cells NCTC2544 were maintained in M199 medium with Earl's salt supplement, 10% (v/v) foetal calf serum, L-glutamine (27 µg/ml), penicillin (250 U/ml), and streptomycin (25 mg/ml). NCTC2544 cells stably expressing human PAR2 (clone G) were maintained in complete M199 medium containing 400 μg/ml of Geneticin for selection pressure and passaged using Versene (2% EDTA/PBS). EAhy-926 cells were produced by hybridizing human umbilical vein endothelial cells (HUVECs) with the epithelial cell line A549 [27] and maintained in Dulbecco's Modified Eagle's Medium (DMEM) supplemented with 10% foetal calf serum (FCS), hypoxanthine/aminopterin/thymidine (HAT supplement), penicillin (250 U/ml) and streptomycin (25 mg/ml), and cells were passaged using Versene.
# To measure JNK activity, cells were stimulated as appropriate and the reaction terminated by rapid aspiration and the addition of ice-cold PBS. […] Phosphorylation of GST-c-Jun was then determined by autoradiography. […]
# (§3) Fig. 1 PAR2 activation mediates inhibition of TNFα-stimulated JNK activity and phosphorylation in PAR2 NCTC2544 cells. […] Samples were assessed for JNK activity (Panel A) or phospho-JNK levels (Panel C) as outlined in the Methods section. Gels from JNK assays were quantified (Panel B). Each value represents the mean ± s.e.m from at least 4 experiments and data was quantified by densitometry. ⁎P < 0.05, ⁎⁎P < 0.01 compared to TNFα alone.
# Fig. 4 Concentration response effects of PAR2 peptides for activation of JNK and inhibition of TNFα-stimulated JNK. PAR2 expressing NCTC2544 cells (clone G) were incubated with increasing concentrations of SLIGKV-OH or 2f-LIGKV-OH for 30 min and assayed for JNK activity (Panel B) or stimulated for a further 30 min with TNFα (+) before JNK activity was assessed (Panel A). Samples were assessed for JNK activity as outlined in the Methods section. Gels from JNK assays were quantified (Panel C). Each value represents the mean ± s.e.m from at least 4 experiments and data was quantified by densitometry.
# human PAR2 [4] = target: T1, human PAR2; assay: TNFα-stimulated JNK phosphorylation (Western blot), PAR2 NCTC2544 cells (clone G); type: cell-based; settings: pre-incubation 30 min, TNFα 10 ng/ml 30 min
# Method: as §2
# (§4) Proteins were separated by 10% SDS–PAGE and transferred onto nitrocellulose. […]
# as §3
# human PAR2 [5] = target: T1, human PAR2; settings: ref [17]; cited from earlier work
# Description: as §1
# TNFR1/TRADD = TNFR1/TRADD complex formation (TNFR1 immuno-precipitation, TRADD immuno-blot), PAR2 expressing cells; type: cell-based, human; settings: TNFα 10 ng/ml 30 min, versus basal
# Method: as §2
# Proteins were separated by 10% SDS–PAGE and transferred onto nitrocellulose. The membranes were blocked for non-specific binding for 2 h in 2% BSA (w/v) diluted in NATT buffer (50 mM Tris–HCl, 150 mM NaCl, 0.2% (v/v) Tween-20). The blots were then incubated overnight with 50 ng/ml primary antibody diluted in 0.2% BSA (w/v) in NATT buffer. The blots were washed with NATT buffer for 90 min and incubated with HRP-conjugated secondary antibody (20 ng/ml in 0.2% BSA (w/v) diluted in NATT buffer) for 2 h. After a further 90 min wash, the blots were subjected to ECL reagent and exposed to Kodak X-ray film.
# (§5) For immuno-precipitation of TNFR1, equal amounts of pre-cleared cell lysates were incubated in Tris–HCl buffer, pH 7.4, containing 50 mM NaCl, 1 mM EDTA, 1 mM EGTA, 1% (w/v) Triton X-100, and 0.5% (w/v) Nonidet P-40, with 2 μg TNFR1 antibody, pre-coupled to protein G, for 3 h. Lysates were recovered by sequential washes in solubilisation buffer and in the same buffer lacking detergents. Precipitates were assessed for TRADD or RIP content using Western blotting.
# Fig. 7 PAR2 mediated TNFR1 adapter protein disruption in PAR2 expressing cells. In Panel A, cells were pre-treated with peptide (100 μM) or vehicle prior to stimulation with TNFα (10 ng/ml) for 30 min. Lysates were immuno-precipitated for TNFR1 and immuno-blotted for TRADD and/or RIP, as outlined in the Methods section. In Panel B cells were pre-treated with 100 nM YM254890 or 3 μM GF109203X for 30 min prior to pre-treatment with peptide (100 μM), for 30 min, then incubated for a further 30 min with TNFα (10 ng/ml). TNFR1 immuno-precipitates were immuno-blotted for TRADD. Each gel is representative of at least three experiments.
# TNFR1/RIP = TNFR1/RIP complex formation (TNFR1 immuno-precipitation, RIP immuno-blot), PAR2 expressing cells; type: cell-based, human; settings: TNFα 10 ng/ml 30 min, versus basal
# Method: as §2
# Proteins were separated by 10% SDS–PAGE and transferred onto nitrocellulose. The membranes were blocked for non-specific binding for 2 h in 2% BSA (w/v) diluted in NATT buffer (50 mM Tris–HCl, 150 mM NaCl, 0.2% (v/v) Tween-20). […]
# as §5, with “Lysates were recovered by sequential washes in solubilisation buffer and in the same buffer lacking detergents.” left out, “blotting. […]” for “blotting.”
# ERK = ERK activation, PAR2 NCTC2544 cells; type: cell-based, human; settings: response to TNFα; data not shown
# Method: as §2
# JNK = assay: TNFα-stimulated JNK phosphorylation and activity, PAR2 NCTC2544 cells; type: cell-based, human; settings: TNFα 10 ng/ml 30 min, untreated cells
# Method: as §2, §4
# To measure JNK activity, cells were stimulated as appropriate and the reaction terminated by rapid aspiration and the addition of ice-cold PBS. […] Phosphorylation of GST-c-Jun was then determined by autoradiography.
# Fig. 6 Gq/11 is essential for PAR2 mediated inhibition of JNK activation by TNFα. […] Samples were assessed for phospho-JNK levels (Panels A and D) or JNK activity (Panel B) as outlined in the Methods section. Gels from JNK activity assays were quantified by densitometry (Panel C). […]
compound,measurement,setting,value
CC(C)NCC(O)COc1cccc2ccccc12 (stereo not drawn) [propranolol],"cAMP accumulation, functional behaviour",β2 [1],inverse agonist
same,"ERK activation, functional behaviour",β2 [2],partial agonist
trypsin,effect on TNFα-stimulated JNK activity,human PAR2 [3],strongly inhibited both the phosphorylation and activity of JNK; also recorded: concentration-dependent inhibition of subsequent TNFα-stimulated JNK activity; also recorded: strongly mediate an inhibition of TNFα mediated JNK signalling
same,effect on TNFα-stimulated JNK phosphorylation,human PAR2 [4],strongly inhibited both the phosphorylation and activity of JNK
same,JNK activity on PAR2 activation,human PAR2 [5],increase in JNK activity
tumour necrosis factor-α [TNFα],TRADD recovery with TNFR1 on stimulation,TNFR1/TRADD,marked increase in both TRADD and RIP recovery
same,RIP recovery with TNFR1 on stimulation,TNFR1/RIP,marked increase in both TRADD and RIP recovery
same,ERK activation,ERK,negligible
same,TNFα stimulation of JNK phosphorylation and activity,JNK,stimulated JNK phosphorylation and activity as expected
